These molecules were tested against T1, AHR (Homo sapiens, UniProt P35869) (assay: DRE-Luciferase Reporter Assay, HepG2 (agonist)). Conditions: HepG2, Table 2; read-out: DRE-Luc HepG2 - Agonist: Average EC50.
T1 construct: endogenous in cells; host or cells: HepG2 (human), transfected with a DRE-luciferase reporter only
T1 sequence (P35869 11-848): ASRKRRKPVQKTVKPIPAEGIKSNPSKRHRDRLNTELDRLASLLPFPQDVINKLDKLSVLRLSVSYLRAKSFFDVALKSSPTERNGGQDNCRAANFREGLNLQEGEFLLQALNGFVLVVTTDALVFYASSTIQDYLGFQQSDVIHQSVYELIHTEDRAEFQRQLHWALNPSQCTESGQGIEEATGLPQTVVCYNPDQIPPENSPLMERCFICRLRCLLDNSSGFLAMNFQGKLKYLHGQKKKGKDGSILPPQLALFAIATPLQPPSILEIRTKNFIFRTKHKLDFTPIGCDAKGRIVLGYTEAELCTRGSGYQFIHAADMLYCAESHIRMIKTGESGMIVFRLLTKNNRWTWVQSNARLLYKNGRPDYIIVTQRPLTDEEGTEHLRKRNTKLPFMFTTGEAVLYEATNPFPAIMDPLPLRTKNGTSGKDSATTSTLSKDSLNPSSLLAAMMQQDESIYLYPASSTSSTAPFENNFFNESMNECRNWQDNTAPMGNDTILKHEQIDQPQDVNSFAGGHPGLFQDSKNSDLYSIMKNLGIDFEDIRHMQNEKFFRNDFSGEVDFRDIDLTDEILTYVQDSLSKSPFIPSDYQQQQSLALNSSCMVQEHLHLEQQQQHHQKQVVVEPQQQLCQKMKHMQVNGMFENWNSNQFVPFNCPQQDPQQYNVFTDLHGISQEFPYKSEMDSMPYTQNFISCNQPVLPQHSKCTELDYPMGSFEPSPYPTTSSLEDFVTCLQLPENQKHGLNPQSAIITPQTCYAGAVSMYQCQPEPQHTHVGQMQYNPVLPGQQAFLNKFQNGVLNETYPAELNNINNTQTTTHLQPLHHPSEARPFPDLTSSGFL
Type: cell-based
Experimental: DRE-Luciferase Reporter Assay
AHR binds to Dioxin Responsive Elements (DRE) upstream of genes that it activates. One measure of AHR activity is activation of a reporter gene, such as luciferase, downstream of one or multiple DRE elements. Luciferase activity reflects activation and inhibition of AHR in the cells expressing this reporter.
Murine Hepa1-6 or Hepa-1c1c7 or other murine cell line with a DRE-luciferase reporter either stably or transiently transfected are plated in media in plates (96-well, 384-well or other plates) and incubated overnight at 37 C in a CO2 incubator. Likewise, human HepG2 or other human cell line with a DRE-luciferase reporter either stably or transiently transfected are plated in media in plates (96-well, 384-well or other plates) and incubated overnight at 37 C in a CO2 incubator.
(§1) The next day, an AHR agonist compound is added. Cells are incubated for 6, 16 or 24 hours or another time point and then lysed for determination of luciferase activity as a read-out of the AHR activation. Luciferase can be measured with a commercial kit such as the Promega Luciferase kit or any kit or reagents that provide the luciferin substrate for measuring luciferase activity. The level of luciferase with only activating ligand (e.g. such as TCDD, kynurenine, ITE (2-(1H-indole-3-ylcarbonyl)-4-thiazolecarboxylic methyl ester), VAF347, BNF (beta-naphthoflavone), ICZ (6-formylindolo(3,2-b) carbazole or other AHR ligands) added is the maximum signal while the luciferase with no ligand is the minimum signal. EC50s can be determined as the concentration which activates half of the maximum luciferase activity.

SMILES | EC50 [nM]
O=[N+]([O-])c1ccc(-c2csc(Nc3cccc(C(F)(F)F)c3)n2)cc1 [Compound P-3] | < 10
FC(F)(F)c1cccc(Nc2nc(-c3cccc(Br)c3)cs2)c1 [Compound P-4] | < 10
Clc1cccc(Nc2nc(-c3cccc(Cl)c3)cs2)c1 [Compound P-5] | < 10
FC(F)(F)c1cccc(Nc2nc(-c3ccncc3)cs2)c1 [Compound P-6] | < 10
FC(F)(F)c1cccc(Nc2nc(-c3cccnc3)cs2)c1 [Compound P-8] | < 10
FC(F)(F)c1cccc(Nc2nc(-c3ccc(Cl)cc3)cs2)c1 [Compound P-10] | 10 to 100
C[N+](C)(CCO)CCNC(=O)N(c1cccc(C(F)(F)F)c1)c1nc(-c2cccc([N+](=O)[O-])c2)cs1 [I-4] | < 10

Next, values leading:

EC50 [nM] | SMILES
< 10 | O=[N+]([O-])c1cccc(-c2csc(Nc3cccc(C(F)(F)F)c3)n2)c1 [Compound P-1]
< 10 | Clc1cccc(-c2csc(Nc3ccccc3)n2)c1 [Compound P-7]
< 10 | FC(F)(F)c1cccc(Nc2nc(-c3ccccn3)cs2)c1 [Compound P-9]
10 to 100 | COc1cccc(-c2csc(Nc3cccc(C(F)(F)F)c3)n2)c1 [Compound P-11]
10 to 100 | Clc1cccc(-c2csc(Nc3cccnc3)n2)c1 [Compound P-12]
100 to 1000 | Clc1cccc(-c2csc(Nc3ccccn3)n2)c1 [Compound P-13]
< 10 | C[N+](C)(C)CCNC(=O)N(c1cccc(C(F)(F)F)c1)c1nc(-c2cccc([N+](=O)[O-])c2)cs1 [I-1]
< 10 | C[N+](C)(CCNC(=O)N(c1cccc(C(F)(F)F)c1)c1nc(-c2cccc(Cl)c2)cs1)CCNC(=O)N(c1cccc(C(F)(F)F)c1)c1nc(-c2cccc(Cl)c2)cs1 [I-2]
< 10 | C[N+](C)(CCO)CCNC(=O)N(c1cccc(C(F)(F)F)c1)c1nc(-c2cccc(Cl)c2)cs1 [I-3]
< 10 | FC(F)(F)c1cncc(Nc2nc(-c3cccc(Cl)c3)cs2)c1 [I-5]

Same assay, conditions: HepG2, Table 3; read-out: DRE-Luc HepG2 - Agonist: Average EC50

SMILES | EC50 [nM]
COC(=O)c1cc(-c2csc(Nc3cccc(C(F)(F)F)c3)n2)cc([N+](=O)[O-])c1 [I-108] | 100 to 1000
C[N+](C)(C)CCCNC(=O)N(c1cccc(C(F)(F)F)c1)c1nc(-c2ccc[n+]([O-])c2)cs1 [I-110] | > 1000
COC(=O)c1cc(C#N)cc(-c2csc(Nc3cccc(C(F)(F)F)c3)n2)c1 [I-113] | > 1000
N#Cc1cccc(-c2csc(Nc3cccc(C(=O)O)c3)n2)c1 [I-114] | > 1000
O=C(O)c1cccc(Nc2nc(-c3ccc[n+]([O-])c3)cs2)c1 [I-116] | > 1000
[O-][n+]1cccc(-c2csc(Nc3cncc(C(F)(F)F)c3)n2)c1 [I-122] | > 1000
[O-][n+]1cccc(-c2cnc(Nc3cccc(C(F)(F)F)c3)o2)c1 [I-123] | > 1000
N#Cc1cccc(-c2coc(Nc3cccc(C(F)(F)F)c3)n2)c1 [I-124] | > 1000
O=c1cc(-c2cnc(Nc3cccc(C(F)(F)F)c3)o2)cc[nH]1 [I-126] | > 1000
COC(=O)c1cc(-c2csc(Nc3cccc(C(F)(F)F)c3)n2)c[n+]([O-])c1 [I-127] | 100 to 1000
[O-][n+]1cccc(-c2cc(Nc3cccc(C(F)(F)F)c3)no2)c1 [I-131] | > 1000
O=c1cc(-c2nc(Nc3cccc(C(F)(F)F)c3)no2)cc[nH]1 [I-133] | 100 to 1000
[O-][n+]1cccc(-c2nc(Nc3cccc(C(F)(F)F)c3)no2)c1 [I-134] | > 1000
O=c1cc(-c2noc(Nc3cccc(C(F)(F)F)c3)n2)cc[nH]1 [I-135] | > 1000
N#Cc1cccc(-c2cc(Nc3cccc(C(F)(F)F)c3)on2)c1 [I-138] | > 1000
O=c1cc(-c2cc(Nc3cccc(C(F)(F)F)c3)no2)cc[nH]1 [I-139] | 100 to 1000
COc1cc(-c2csc(Nc3cccc(SC)c3)n2)ccn1 [I-141] | > 1000
[O-][n+]1cccc(-c2noc(Nc3cccc(C(F)(F)F)c3)n2)c1 [I-150] | > 1000
N#Cc1cccc(-c2cc(Nc3cccc(C(F)(F)F)c3)no2)c1 [I-151] | > 1000

Next, values leading:

EC50 [nM] | SMILES
> 1000 | O=C(O)c1cc(-c2csc(Nc3cccc(C(F)(F)F)c3)n2)c[n+]([O-])c1 [I-111]
> 1000 | N#Cc1cc(-c2csc(Nc3cccc(C(F)(F)F)c3)n2)cc([N+](=O)[O-])c1 [I-115]
100 to 1000 | C[N+](C)(C)CCNC(=O)N(c1cccc(C(F)(F)F)c1)c1nc(-c2ccc[n+]([O-])c2)cs1 [I-118]
< 10 | NC(=O)c1cccc(-c2csc(Nc3cccc(C(F)(F)F)n3)n2)c1 [I-119]
100 to 1000 | [O-][n+]1cccc(-c2csc(Nc3ccc(C(F)(F)F)cc3)n2)c1 [I-129]
> 1000 | CSc1cccc(-c2csc(Nc3cccc(C(F)(F)F)c3)n2)c1 [I-132]
> 1000 | O=c1cc(-c2cc(Nc3cccc(C(F)(F)F)c3)on2)cc[nH]1 [I-137]
> 1000 | [O-][n+]1cccc(-c2cc(Nc3cccc(C(F)(F)F)c3)on2)c1 [I-140]
> 1000 | CSc1cccc(Nc2nc(-c3cc[nH]c(=O)c3)cs2)c1 [I-142]

Each molecule was assayed against T2, AHR (Mus musculus, UniProt P30561) (assay: P450 CYP1A1 Luciferase Assay, Hepa1.6 (agonist)). Conditions: Hepa1.6, Table 2.
T2 sequence (P30561 1-848 F348L/P471L): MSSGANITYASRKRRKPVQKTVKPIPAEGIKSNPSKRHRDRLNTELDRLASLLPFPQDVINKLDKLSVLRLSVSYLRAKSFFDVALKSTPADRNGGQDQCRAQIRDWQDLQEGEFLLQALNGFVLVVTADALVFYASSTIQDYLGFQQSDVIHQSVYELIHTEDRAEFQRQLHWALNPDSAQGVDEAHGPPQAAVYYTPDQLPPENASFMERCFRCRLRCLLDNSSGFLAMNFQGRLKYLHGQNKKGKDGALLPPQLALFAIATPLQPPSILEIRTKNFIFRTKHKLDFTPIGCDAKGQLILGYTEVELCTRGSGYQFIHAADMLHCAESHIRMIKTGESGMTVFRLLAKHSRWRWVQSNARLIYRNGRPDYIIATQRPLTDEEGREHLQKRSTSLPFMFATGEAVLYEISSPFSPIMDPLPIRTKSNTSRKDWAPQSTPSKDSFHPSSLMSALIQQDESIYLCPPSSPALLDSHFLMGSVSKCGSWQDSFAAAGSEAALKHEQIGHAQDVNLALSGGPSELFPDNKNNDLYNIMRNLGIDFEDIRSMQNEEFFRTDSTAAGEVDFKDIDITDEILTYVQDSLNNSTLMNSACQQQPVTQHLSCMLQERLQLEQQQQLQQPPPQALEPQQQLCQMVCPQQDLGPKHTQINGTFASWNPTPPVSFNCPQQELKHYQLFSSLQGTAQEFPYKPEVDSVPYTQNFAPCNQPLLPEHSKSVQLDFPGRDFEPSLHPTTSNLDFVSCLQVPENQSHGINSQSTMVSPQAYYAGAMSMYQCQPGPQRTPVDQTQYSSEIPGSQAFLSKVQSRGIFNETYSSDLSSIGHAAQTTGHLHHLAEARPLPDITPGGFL
Type: cell-based, murine
Experimental: P450 CYP1A1 Luciferase Assay
AHR binds to Dioxin Responsive Elements (DRE) upstream of genes that it activates. One measure of AHR activity is P450 CYP1A1 protein levels determined by measuring CYP1A1 enzyme activity using a luminogenic CYP1A1 luciferin-based substrate. Luciferase activity will reflect CYP1A1 activity resulting from activation of AHR in the cells.
Murine Hepa1-6 or Hepa-1c1c7 or other murine cell line, human HepG2 or other human cell line are plated in media (96-well, 384-well or other plates) and incubated overnight at 37 C in a CO2 incubator.
as §1, with “lysed and incubated with a CYP1A1 luciferase-based substrate (e.g. Luciferin-CEE)” for “lysed”, “3, 6, or 12 hours of another time point. Determination” for “determination”, “CYP1A1 enzyme activity” for “the AHR activation. Luciferase”, “P450 Glo CYP1A1 detection reagent” for “Luciferase kit”, “provide” for “provide the luciferin substrate”

SMILES | EC50 [nM]
O=[N+]([O-])c1ccc(-c2csc(Nc3cccc(C(F)(F)F)c3)n2)cc1 [Compound P-3] | > 1000
FC(F)(F)c1cccc(Nc2nc(-c3cccc(Br)c3)cs2)c1 [Compound P-4] | 100 to 1000
Clc1cccc(Nc2nc(-c3cccc(Cl)c3)cs2)c1 [Compound P-5] | > 1000
FC(F)(F)c1cccc(Nc2nc(-c3ccncc3)cs2)c1 [Compound P-6] | > 1000
FC(F)(F)c1cccc(Nc2nc(-c3cccnc3)cs2)c1 [Compound P-8] | 100 to 1000
FC(F)(F)c1cccc(Nc2nc(-c3ccc(Cl)cc3)cs2)c1 [Compound P-10] | > 1000
C[N+](C)(CCO)CCNC(=O)N(c1cccc(C(F)(F)F)c1)c1nc(-c2cccc([N+](=O)[O-])c2)cs1 [I-4] | 10 to 100

Now from value to molecule:

EC50 [nM] | SMILES
10 to 100 | O=[N+]([O-])c1cccc(-c2csc(Nc3cccc(C(F)(F)F)c3)n2)c1 [Compound P-1]
> 1000 | Clc1cccc(-c2csc(Nc3ccccc3)n2)c1 [Compound P-7]
> 1000 | FC(F)(F)c1cccc(Nc2nc(-c3ccccn3)cs2)c1 [Compound P-9]
> 1000 | COc1cccc(-c2csc(Nc3cccc(C(F)(F)F)c3)n2)c1 [Compound P-11]
> 1000 | Clc1cccc(-c2csc(Nc3cccnc3)n2)c1 [Compound P-12]
> 1000 | Clc1cccc(-c2csc(Nc3ccccn3)n2)c1 [Compound P-13]
10 to 100 | C[N+](C)(C)CCNC(=O)N(c1cccc(C(F)(F)F)c1)c1nc(-c2cccc([N+](=O)[O-])c2)cs1 [I-1]
100 to 1000 | C[N+](C)(CCNC(=O)N(c1cccc(C(F)(F)F)c1)c1nc(-c2cccc(Cl)c2)cs1)CCNC(=O)N(c1cccc(C(F)(F)F)c1)c1nc(-c2cccc(Cl)c2)cs1 [I-2]
100 to 1000 | C[N+](C)(CCO)CCNC(=O)N(c1cccc(C(F)(F)F)c1)c1nc(-c2cccc(Cl)c2)cs1 [I-3]
> 1000 | FC(F)(F)c1cncc(Nc2nc(-c3cccc(Cl)c3)cs2)c1 [I-5]

Source: US12030876B2, “Aryl hydrocarbon receptor (AHR) agonists and uses thereof” (Ikena Oncology, Inc., priority 2019, dated 2024)
